Reference: ChEMBL document CHEMBL6103580, “Synthesis and biological evaluation of natural cleistanolate, its enantiomer and analogues” (Eur J Med Chem, 2025)
The source made the active and inactive calls. No cut-off for these calls is given here.

What was measured:
Raji [1] = test: Antiproliferative activity against human Raji cells assessed as inhibition of cell growth incubated for 72 hrs by MTT assay; format: functional, cell-based
MCF7 = test: Antiproliferative activity against human MCF7 cells assessed as inhibition of cell growth incubated for 72 hrs by MTT assay; format: functional, cell-based; conditions: MCF7, 72 h
A549 = test: Antiproliferative activity against human A549 cells assessed as inhibition of cell growth incubated for 72 hrs by MTT assay; format: functional, cell-based; conditions: A549, 72 h
K562 = test: Antiproliferative activity against human K562 cells assessed as inhibition of cell growth incubated for 72 hrs by MTT assay; format: functional, cell-based; conditions: K562, 72 h
Jurkat = test: Antiproliferative activity against human Jurkat cells assessed as inhibition of cell growth incubated for 72 hrs by MTT assay; format: functional, cell-based
HL-60 = test: Antiproliferative activity against human HL-60 cells assessed as inhibition of cell growth incubated for 72 hrs by MTT assay; format: functional, cell-based; conditions: HL-60, 72 h
HeLa = test: Antiproliferative activity against human HeLa cells assessed as inhibition of cell growth incubated for 72 hrs by MTT assay; format: functional, cell-based
[2] = Antiproliferative activity against human MRC5 cells assessed as inhibition of cell growth incubated for 72 hrs by MTT assay; format: toxicity, cell-based
MDA-MB-231 = test: Antiproliferative activity against human MDA-MB-231 cells assessed as inhibition of cell growth incubated for 72 hrs by MTT assay; format: functional, cell-based; conditions: MDA-MB-231, 72 h
[3] = target: Cholinesterase (Homo sapiens) (UniProt P06276); test: Inhibition of human BChE at 100 uM using acetylthiocholine iodide as substrate by DTNB reagent based Ellman spectrophotometric analysis relative to control
Candida tropicalis = test: Antifungal activity against Candida tropicalis CCY 29-7-62 assessed as reduction in fungal growth incubated for 48 hrs by muller hinton broth microdilution based XTT assay; format: functional
Escherichia coli [4] = test: Antimicrobial activity against Escherichia coli ZPM 132 assessed as reduction in cell viability incubated for 24 hrs by muller hinton broth microdilution based XTT assay; format: functional
Streptococcus pneumoniae = test: Antibacterial activity against Streptococcus pneumoniae ZPM 187 assessed as reduction in cell viability incubated for 24 hrs by muller hinton broth microdilution based XTT assay; format: functional
Vibrio cholerae = test: Antibacterial activity against Vibrio cholerae O139 CIRS 245 assessed as reduction in cell viability incubated for 24 hrs by muller hinton broth microdilution based XTT assay; format: functional
Escherichia coli [5] = test: Antibacterial activity against Escherichia coli ZPM 132 assessed as reduction in cell viability incubated for 24 hrs by muller hinton broth microdilution based XTT assay; format: functional
Raji [6] = test: Potency index, ratio of doxorubicin IC50 to test compound IC50 for antiproliferative activity against human Raji cells assessed as inhibition of cell growth incubated for 72 hrs by MTT assay; format: functional
[7] = Potency index, ratio of doxorubicin IC50 to test compound IC50 for antiproliferative activity against human HL-60 cells assessed as inhibition of cell growth incubated for 72 hrs by MTT assay; format: functional
[8] = Potency index, ratio of cleistanolate IC50 to test compound IC50 for antiproliferative activity against human HeLa cells assessed as inhibition of cell growth incubated for 72 hrs by MTT assay; format: functional
Raji [9] = test: Potency index, ratio of cleistanolate IC50 to test compound IC50 for antiproliferative activity against human Raji cells assessed as inhibition of cell growth incubated for 72 hrs by MTT assay; format: functional

Sequence of Cholinesterase (Homo sapiens) (P06276 whole entry): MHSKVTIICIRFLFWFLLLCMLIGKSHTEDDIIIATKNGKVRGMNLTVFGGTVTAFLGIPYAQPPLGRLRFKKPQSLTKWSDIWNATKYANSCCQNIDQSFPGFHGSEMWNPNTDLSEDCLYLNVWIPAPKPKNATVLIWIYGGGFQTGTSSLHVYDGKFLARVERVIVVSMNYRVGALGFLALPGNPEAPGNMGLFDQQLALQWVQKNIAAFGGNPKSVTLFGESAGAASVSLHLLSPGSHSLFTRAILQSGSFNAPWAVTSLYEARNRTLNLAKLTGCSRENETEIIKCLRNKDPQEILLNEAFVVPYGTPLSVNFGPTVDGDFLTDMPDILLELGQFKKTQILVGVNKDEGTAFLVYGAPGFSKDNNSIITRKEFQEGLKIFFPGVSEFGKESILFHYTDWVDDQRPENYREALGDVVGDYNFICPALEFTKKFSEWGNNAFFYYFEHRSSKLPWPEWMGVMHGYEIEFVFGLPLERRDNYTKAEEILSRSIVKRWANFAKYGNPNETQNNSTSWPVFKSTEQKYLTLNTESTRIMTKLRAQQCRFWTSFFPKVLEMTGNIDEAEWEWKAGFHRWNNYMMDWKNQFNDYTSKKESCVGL

Compound	IC50 (Raji [1]) [µM]	IC50 (MCF7) [µM]	IC50 (A549) [µM]	IC50 (K562) [µM]	IC50 (Jurkat) [µM]	IC50 (HL-60) [µM]	IC50 (HeLa) [µM]	IC50 at 72 h [2] [µM]	IC50 (MDA-MB-231) [µM]	inhibition [3]	MFC (Candida tropicalis) [µg/mL]	MIC (Escherichia coli [4]) [µg/mL]	MBC (Streptococcus pneumoniae) [µg/mL]	MBC (Vibrio cholerae) [µg/mL]	MBC (Escherichia coli [5]) [µg/mL]	Ratio IC50 (Raji [6])	Ratio IC50 [7]	Ratio IC50 [8]	Ratio IC50 (Raji [9])
CO[C@H]1CC(=O)O[C@H]1[C@H](O)[C@@H](O)COC(=O)c1ccccc1	21	12.8	29.6	9.89	32	10.3	10.6	> 100	19.9										
Nc1c2c(nc3ccccc13)CCCC2										96%									
CO[C@H]1CC(=O)O[C@H]1[C@H](OC(=O)c1ccccc1)[C@@H](COC(=O)c1ccccc1)OC(=O)c1ccccc1	17	1.31	24.1	17.9	23.4	6.38	5.58	> 100	23.7										
CO[C@H]1CC(=O)O[C@H]1[C@H](OC(C)=O)[C@H](COC(=O)c1ccccc1)OC(C)=O	11.2	5.21	8.32	8.23	14	21	7.02	> 100	16.1										
CO[C@@H]1CC(=O)O[C@@H]1[C@H]1OC(=O)O[C@H]1COC(=O)c1ccccc1	21.3	4.31	13.4	10	16	10.6	7.03	> 100	25.8	51%									
CO[C@H]1CC(=O)O[C@H]1[C@H](O)[C@H](O)COC(=O)c1ccccc1	19.7	14.1	18.7	3.97	16.5	9.45	16	> 100	45.2	inactive	> 100	> 1000	> 100	> 100	> 1000				
O=C1C[C@@H](O)[C@@H]([C@@H](O)[C@H](O)CO)O1	2.64	0.63	8.64	2.36	3.25	0.74	0.89	> 100	5.32							1.1	1.3	2	
C=C[C@@H](OCc1ccccc1)[C@@H]1OC(=O)C[C@@H]1O	22.2	9.44	22.6	3.95	11.3	11.2	54.1	> 100	21.3	13%	> 100	> 1000	> 100	> 100	> 1000				
CO[C@@H]1CC(=O)O[C@@H]1[C@@H](OC(=O)c1ccccc1)[C@H](COC(=O)c1ccccc1)OC(=O)c1ccccc1	14.1	13.2	14.1	3.36	15.9	8.58	15.3	> 100	13.5	40%	> 100	> 1000	> 100	> 100	> 1000				
CO[C@@H]1CC(=O)O[C@@H]1[C@@H](OC(C)=O)[C@@H](COC(=O)c1ccccc1)OC(C)=O	31.4	13.5	9.78	7.23	22.1	16.5	6.31	> 100	28.4										2.1
CO[C@H]1CC(=O)O[C@H]1[C@H](OC(C)=O)[C@@H](COC(=O)c1ccccc1)OC(C)=O	27.7	29.4	21.4	16.2	24.2	19.4	23.8	87.9	13.2	85%	> 100	> 1000	> 100	> 100	> 1000				
C=C[C@H](OCc1ccccc1)[C@H]1OC(=O)C[C@H]1O	34.8	19.2	17.2	25.1	29.1	23.4	17	> 100	12.9										
